Reference: US8598345B2 (priority 2009, dated 2013)

Target: human mGluR5 (Homo sapiens, UniProt P41594)
Sequence (P41594 21-1212): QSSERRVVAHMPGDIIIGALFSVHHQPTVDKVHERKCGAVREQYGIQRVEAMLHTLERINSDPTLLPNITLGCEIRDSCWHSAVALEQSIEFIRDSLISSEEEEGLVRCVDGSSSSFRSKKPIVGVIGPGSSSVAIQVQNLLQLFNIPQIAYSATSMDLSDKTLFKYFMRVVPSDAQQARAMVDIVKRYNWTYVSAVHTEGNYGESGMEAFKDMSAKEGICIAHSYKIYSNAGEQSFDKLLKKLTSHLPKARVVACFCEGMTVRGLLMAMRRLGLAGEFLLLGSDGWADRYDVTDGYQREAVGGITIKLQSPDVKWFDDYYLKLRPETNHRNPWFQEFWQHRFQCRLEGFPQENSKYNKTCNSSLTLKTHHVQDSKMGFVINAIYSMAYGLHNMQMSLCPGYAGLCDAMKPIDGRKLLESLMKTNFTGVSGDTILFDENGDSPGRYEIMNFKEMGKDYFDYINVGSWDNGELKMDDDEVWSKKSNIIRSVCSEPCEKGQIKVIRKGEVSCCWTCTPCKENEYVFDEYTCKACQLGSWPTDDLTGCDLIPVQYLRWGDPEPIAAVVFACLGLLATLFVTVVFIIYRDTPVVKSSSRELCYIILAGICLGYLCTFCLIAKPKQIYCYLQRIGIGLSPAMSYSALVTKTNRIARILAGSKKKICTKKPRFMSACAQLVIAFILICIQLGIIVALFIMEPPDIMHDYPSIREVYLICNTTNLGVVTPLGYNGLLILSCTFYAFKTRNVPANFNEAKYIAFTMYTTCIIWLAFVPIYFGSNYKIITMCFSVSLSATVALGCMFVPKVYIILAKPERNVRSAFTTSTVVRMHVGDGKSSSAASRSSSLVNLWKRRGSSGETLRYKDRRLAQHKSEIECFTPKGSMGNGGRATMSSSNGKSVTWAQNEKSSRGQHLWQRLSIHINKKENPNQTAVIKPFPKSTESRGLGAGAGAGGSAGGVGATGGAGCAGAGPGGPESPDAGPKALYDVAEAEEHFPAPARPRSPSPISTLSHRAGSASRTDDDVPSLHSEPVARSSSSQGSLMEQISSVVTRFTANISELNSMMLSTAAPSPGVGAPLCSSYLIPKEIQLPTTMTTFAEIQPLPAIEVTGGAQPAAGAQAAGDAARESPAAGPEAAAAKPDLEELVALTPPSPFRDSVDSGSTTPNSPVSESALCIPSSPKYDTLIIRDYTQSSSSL
Details: read-out: human mGluR5 IC50
Description: The cells were loaded with a Ca2+-sensitive fluorescent dye (e.g., Fluo-4), and the plates were washed and placed in the FDSS instrument. Test compound was applied to cells 3 seconds after baseline readings were taken. Cells were incubated with the test compounds for 140 seconds and then stimulated with an EC20 concentration of an mGluR5 agonist (e.g., glutamate, 3,5-dihydroxyphenylglycine, or quisqualate); 60-80 seconds later an EC80 concentration of agonist was added and readings taken for an additional 40 seconds. Data were collected at 1 Hz. […] Concentration response curves were generated using a four parameter logistical equation.
The above described assay was operated in two modes. In the first mode (utilizing a triple add protocol), a range of concentrations of the present compounds were added to cells, followed by two single fixed concentrations of agonist (EC20 followed by EC80). If a compound acted as a potentiator, an EC50 value for potentiation of the EC20 response and a maximum extent of potentiation by the compound at this concentration of agonist was determined by non-linear curve fitting. If a compound acted as an antagonist, an IC50 value for antagonism of the EC80 response and a maximum extent of antagonism by the compound at this concentration of agonist was determined by non-linear curve fitting. In the second mode (utilizing a double add protocol), several fixed concentrations of the present compounds were added to various wells on a plate, followed by a range of concentrations of agonist for each concentration of present compound; the EC50 values for the agonist at each concentration of compound were determined by nonlinear curve fitting. A decrease in the EC50 value of the agonist with increasing concentrations of the present compounds (a leftward shift of the agonist concentration-response curve) is an indication of the degree of mGluR5 positive allosteric modulation at a given concentration of the present compound. An increase in the EC50 value of the agonist with increasing concentrations of the present compounds (a rightward shift of the agonist concentration response curve) is an indication of the degree of mGluR5 antagonism at a given concentration of the present compound. The second mode also indicates whether the present compounds also affect the maximum response to mGluR5 to agonists.
The mGluR5 activity was determined using the metabotropic glutamate receptor activity assays in human embryonic kidney cells as described herein. The mGluR5 activity data for some compounds are shown as the average of at least three experiments with the standard error in these cases. If no error is indicated for the mGluR5 activity, the values given represent the results from a single experiment or the average of two experiments.
`O=C(Nc1cc(F)ccn1)c1cc(Oc2cncnc2)ccn1` showed an IC50 of 201 nM.
In the case of `Cc1cccc(NC(=O)c2cc(Oc3cncnc3)ccn2)n1` [N-(6-methylpyridin-2-yl)-4-(pyrimidin-5-yloxy)picolinamide], the IC50 is reported as 47 nM.
`O=C(Nc1cccc(Cl)n1)c1cc(Oc2cncnc2)ccn1` showed an IC50 of 245 nM.
`Cc1cccc(NC(=O)c2cc(N(C)c3cncnc3)ccn2)n1` showed an IC50 of 2150 nM.
With `O=C(Nc1cccc(F)n1)c1cc(Oc2cncnc2)ccn1` the IC50 was 161 nM.
In the case of `O=C(Nc1ccc(F)cn1)c1cc(Oc2cncnc2)ccn1`, the IC50 is reported as 364 nM.
In the case of `Cc1nc(NC(=O)c2cc(Oc3cncnc3)ccn2)sc1F`, the IC50 is reported as 943 nM.
Work on `Cc1csc(NC(=O)c2cc(Oc3cccnc3)ccn2)n1` [N-(4-methylthiazol-2-yl)-4-(pyridin-3-yloxy)picolinamide] yielded an IC50 of 101 nM.

Test system: not given
Details: intravenous administration to rhesus monkeys; literature; cited from earlier work
For `Cc1nc(C#Cc2cccnc2)cs1` [MTEP, 3-[(2-methyl-1,3-thiazol-4-yl)ethynyl]pyridine], the clearance is listed as “efficiently cleared”.
